{
  "source": "patent US8207231B2",
  "about": "“Hepatitis A virucide” (Ecolab USA Inc., priority 1999, dated 2012)",
  "origin": "cited, not measured here",
  "tested_on": "hepatitis A",
  "conditions": "1 percent and 2 percent concentration",
  "data": [
    {"smiles": "Cc1ccc(S(=O)(=O)[N-]Cl)cc1.[Na+]", "note": "[chloramine T]", "values": [
      {"measurement": "meets the requirements for activity against hepatitis A", "value": "meets the requirements for activity against hepatitis A"}
    ]}
  ]
}
